From patent publication US10426813B2, “Method to enhance endurance” (KYOWA HAKKO BIO CO., LTD., priority 2009, dated 2019) come the findings set out here.

A short description of data set [1]: Time to exhaustion test on cycle ergometer at 75% VO2 max after dehydration and rehydration. The data set is classed as in vivo, human. From the text: (§1) On four of the five subsequent visits to the HPL, subjects dehydrated to 2.5% of their baseline body mass. On the occasion that a dehydration protocol was not employed, subjects reported to the HPL in a euhydrated state to provide a baseline blood draw and perform the exercise protocol. This trial (T1) provided baseline performance data for how subjects performed in optimal conditions without hydration stress. All performance comparisons were made to this trial. In one trial (T2) subjects achieved their goal weight (−2.5% of baseline body weight) and rested in a recumbent position for 45 minutes before commencing the exercise session. In the subsequent three trials subjects reached their goal weight (−2.5% of baseline body mass) and then rehydrated to −1.5% of their baseline body mass by drinking either water (T3) or two different doses (T4 and T5) of the alanyl-glutamine (ALA-GLU) supplement (0.05 g·kg^−1 and 0.2 g·kg^−1, respectively). During the hydration trials (T3-T5), the exercise protocol began 45 minutes following reaching their goal weight. During this time frame, subjects were rehydrated. The order of the trials was randomly determined.
On the night before testing (5 p.m.), subjects reported to the HPL for weighing and urine specific gravity measures to ascertain that subjects were euhydrated. Subjects were then instructed to not consume any food or water until the next day when they reported back to the HPL (7 a.m.). […] On the morning of trials T2-T5, subjects reporting to the HPL were weighed and began the active dehydration protocol to achieve the desired weight loss. The active dehydration protocol required subjects to walk on a motorized treadmill at 3.4 mi·h^−1 and at a 2% incline. Subjects were fully clothed in a training suit (long cotton heavy weight fleece sweat pants and top). Nude body weight, heart rate, and rating of perceived exertion were monitored at 20-minute increments. […] At the end of the dehydration period, a urine specimen and blood samples were obtained. Dehydration was verified by measuring urine specific gravity and both urine and plasma osmolality. The time necessary to reach the goal body mass (−2.5% weight loss) was 62.5±44.2 min.
(§2) Subjects consumed the supplement or placebo (water) following the dehydration protocol as part of their rehydration to −1.5% of their baseline body mass. The L-alanyl-L-glutamine supplement (0.2 g·kg^−1 or 0.05 g·kg^−1) (Kyowa Hakko USA, New York, N.Y.) was mixed with water and was indistinguishable in appearance and taste from the placebo.
After dehydration and rehydration (except during trial T2), subjects began the exercise protocol. Subjects exercised at a workload that elicited 75% of their VO2 max on a cycle ergometer. Subjects were encouraged to give their best effort during each trial, and were verbally encouraged throughout each exercise trial. Oxygen consumption, minute ventilation, respiratory exchange ratio, and heart rate were measured continuously. Heart rate and blood pressure were recorded before and at the conclusion of exercise. Time to exhaustion was determined as the time that the subject could no longer maintain the workload and/or reach volitional exhaustion.

Data set [2] is described as follows: Plasma glutamine concentration during hydration stress and endurance exercise. The data set is classed as in vivo, human.
Text: as §1, §2
A baseline (BL) blood draw occurred during T1. No other blood was drawn during that trial. The BL blood sample was drawn following a 15-min equilibration period prior to exercise. […]
Hemoglobin was analyzed in triplicate from whole blood using the cyanmethemoglobin method (Sigma Diagnostics, St. Louis, Mo.). Hematocrit was analyzed in triplicate from whole blood via microcentrifugation (IEC micro-MB centrifuge, Needham, Mass.) and microcapillary technique. Plasma volume shifts following the workout were calculated using the formula of Dill & Costill (1974). […]

Structures are written as SMILES. Entries after “also recorded” stand apart in the source; their conditions may differ. Peptide text beside a SMILES is read from it.

On to `C[C@H](N)C(=O)N[C@@H](CCC(N)=O)C(=O)O` [alanyl-glutamine, L-alanyl-L-glutamine] (H-Ala-Gln-OH), for which the “Δ performance: time to exhaustion (difference to T1)” value is listed as “significantly greater times to exhaustion” in data set [1] (T4, 0.05 g·kg^−1, compared to T2 (dehydrated, no rehydration)) and “significantly greater times to exhaustion” in data set [1] (T5, 0.2 g·kg^−1, compared to T2 (dehydrated, no rehydration)). Further, the “trend of inhibiting the decrease in duration of exercise endurance” value in data set [1] (T4, 0.05 g·kg^−1, compared to T3 (water only)) is “even more pronounced”; in data set [1] (T5, 0.2 g·kg^−1, compared to T3 (water only)) it was “even more pronounced”. For the same molecule, the effect on endurance result in data set [1] (overall conclusion, independent of increases in plasma glutamine concentration) was “endurance enhancing effect”. For the same molecule, the Plasma glutamine concentration result is recorded as “No differences” in data set [2] (T4, 0.05 g/kg, compared to T3 (water only)); “significantly higher; also recorded: significantly increased” in data set [2] (T5, 0.2 g·kg^−1, at RHY and IP, compared to T2-T4). Moreover, the “AUC of plasma glutamine concentration” value in data set [2] (T5, 0.2 g·kg^−1, compared to the other experimental trials) is recorded as “significantly higher”.
